Assay results: the supplement of paper PMC11061612

What was measured:
[1] = system: KU812 (Chronic Myelogenous Leukemia); assay: combination Emax (second highest fraction inhibited in the dose matrix, 72 h); higher = more inhibition; extreme values may be limits of the assay
Summary of the method: (§1)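 After 24 hours at 37°C and 5% CO2 in 1536-well plates, cells in DMEM/F12 or RPMI plus 10% FBS received two-drug dose matrices for 72 hours. Viability came from CellTiter-Glo 2.0 luminescence and was scaled as inhibition, anchored at 0 by vehicle wells and at 1 by blank wells. Combination Emax is taken as the second-highest inhibition in the matrix, and Bliss excess as the observed combination effect less EA + EB − EA·EB, with EA and EB the single-agent effects.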

[2] = system: MOG-G-CCM (Low Grade Glioma); assay: Bliss excess, mean over the matrix (fraction); higher = more synergy
Summary of the method: as §1

NCI-H2731 (Mesothelioma) = assay: as above
Summary of the method: as §1

[3] = system: ST486 (Burkitt's Lymphoma); assay: as above
Summary of the method: as §1

SJSA-1 (Osteosarcoma) = assay: as above
Summary of the method: as §1

[4] = system: KU812 (Chronic Myelogenous Leukemia); assay: as above
Summary of the method: as §1

[5] = system: NCCIT (Other Solid Carcinomas); assay: as above
Summary of the method: as §1

[6] = system: CW-2 (Colorectal Carcinoma); assay: as above
Summary of the method: as §1

[7] = system: COR-L279 (Small Cell Lung Carcinoma); assay: as above
Summary of the method: as §1

[8] = system: T-T (Esophageal Squamous Cell Carcinoma); assay: as above
Summary of the method: as §1

M059J (Glioblastoma) = assay: as above
Summary of the method: as §1

[9] = system: KP-3 (Pancreatic Carcinoma); assay: as above
Summary of the method: as §1

[10] = system: NCI-H520 (Squamous Cell Lung Carcinoma); assay: as above
Summary of the method: as §1

[11] = system: DMS-114 (Small Cell Lung Carcinoma); assay: as above
Summary of the method: as §1

[12] = system: NCI-H526 (Small Cell Lung Carcinoma); assay: as above
Summary of the method: as §1

[13] = system: NCI-H929 (Plasma Cell Myeloma); assay: as above
Summary of the method: as §1

[14] = system: KYSE-270 (Esophageal Squamous Cell Carcinoma); assay: as above
Summary of the method: as §1

[15] = system: SK-GT-4 (Esophageal Adenocarcinoma); assay: as above
Summary of the method: as §1

[16] = system: VMRC-RCZ (Kidney Carcinoma); assay: as above
Summary of the method: as §1

[17] = system: NCI-H3122 (Lung Adenocarcinoma); assay: as above
Summary of the method: as §1
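Throughout, for Bliss excess, mean over the matrix: after 72 h of two-drug dosing.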

Row | Compound | combination Emax [1] | Bliss excess [2] | Bliss excess (NCI-H2731 (Mesothelioma)) | Bliss excess [3] | Bliss excess (SJSA-1 (Osteosarcoma)) | Bliss excess [4] | Bliss excess [5] | Bliss excess [6] | Bliss excess [7] | Bliss excess [8] | Bliss excess (M059J (Glioblastoma)) | Bliss excess [9] | Bliss excess [10] | Bliss excess [11] | Bliss excess [12] | Bliss excess [13] | Bliss excess [14] | Bliss excess [15] | Bliss excess [16] | Bliss excess [17]
1 | O=C(c1cc(Cc2n[nH]c(=O)c3ccccc23)ccc1F)N1CCN(C(=O)C2CC2)CC1 [Olaparib] + Cc1c2c(nn1C)CSCc1cc(n(C)n1)CSc1cc(c3ccccc3c1)OCCCc1c(C(=O)O)n(C)c3c-2c(Cl)ccc13 [AZD5991] (first compound max 10 µM, 7x7, partner max 1 µM) | 0.784 | -0.0519 | -0.0452 | 0.0593 | -0.0401 | -0.0111 | 0.0176 | -0.03 | 0.0494 | -0.0217 | 0.0008 | -0.0576 | -0.0289 | 0.0106 | 0.0251 | -0.0215 | -0.0303 | -0.061 | -0.049 | -0.0156
2 | O=C(c1cc(Cc2n[nH]c(=O)c3ccccc23)ccc1F)N1CCN(C(=O)C2CC2)CC1 [Olaparib] + CN(CC[C@H](CSC1=CC=CC=C1)NC2=C(C=C(C=C2)S(=O)(=O)NC(=O)C3=CC=C(C=C3)N4CCC(CC4)[C@H](C5=CC=CC=C5C6=CC=C(C=C6)Cl)O)S(=O)(=O)C(F)(F)F)CCO [AZD4320] (first compound max 10 µM, 7x7, partner max 1 µM) | 0.862 | -0.0282 | -0.0491 | -0.0192 | -0.0509 | -0.0517 | -0.0075 | -0.0353 | 0.0282 | -0.0174 | -0.0174 | -0.0422 | -0.0283 | -0.0971 | 0.0311 | -0.0336 | -0.0221 | -0.0508 | -0.064 | -0.0184
3 | Cc1c2c(nn1C)CSCc1cc(n(C)n1)CSc1cc(c3ccccc3c1)OCCCc1c(C(=O)O)n(C)c3c-2c(Cl)ccc13 [AZD5991] + CC(=O)O[C@H]1C(=O)[C@@]2(C)[C@H]([C@H](OC(=O)c3ccccc3)[C@]3(O)C[C@H](OC(=O)[C@H](O)[C@@H](NC(=O)c4ccccc4)c4ccccc4)C(C)=C1C3(C)C)[C@]1(OC(C)=O)CO[C@@H]1C[C@@H]2O [Paclitaxel] (first compound max 1 µM, 7x7, partner max 3 µM) | 0.918 | 0.0341 | 0.0237 | -0.0046 | -0.0168 | -0.108 | 0.0449 | -0.0199 | 0.0035 | -0.0016 | -0.0193 | -0.0622 | -0.0478 | 0.0975 | 0.0061 | -0.0219 | -0.0116 | -0.0197 | -0.0234 | -0.0003
4 | C[C@@H]1COCCN1c1cc(C2([S@](C)(=N)=O)CC2)nc(-c2ccnc3[nH]ccc23)n1 [AZD6738] + C1CC(C1)(C(=O)[O-])C(=O)[O-].N.N.[Pt+2] [Carboplatin] (first compound max 10 µM, 7x7, partner max 10 µM) | 0.817 | -0.0204 | -0.0109 | -0.0501 | -0.0152 | -0.0691 | -0.0274 | -0.0212 | -0.0178 | -0.0661 | -0.0647 | -0.0087 | -0.0017 | -0.095 | -0.0076 | -0.0536 | 0.0445 | -0.0516 | -0.0249 | -0.0999
